# Results from ChEMBL document CHEMBL1133992, “Hydrolase and sialyltransferase activities of trypanosoma cruzi trans-sialidase towards NeuAc-alpha-2,3-gal-Gal-beta-O-PNP” (Bioorg Med Chem Lett, 2001).
# The source made the active and inactive calls. No cut-off for these calls is given here.
# What was measured:
# [1] = tested on: Vibrio cholerae; experiment: Inhibitory activity against Vibrio cholerae sialidase at mM concentration, Not significant
# [2] = tested on: Trypanosoma cruzi; experiment: Km value for transferase activity of Trypanosoma cruzi trans-sialidase
# [3] = tested on: Trypanosoma cruzi; experiment: Km value for hydrolase activity of Trypanosoma cruzi trans-sialidase
smiles,measurement,setting,value
CCCCCCCCOC1OC(CO)C(O)C(SC2(C(=O)O)CC(O)C(NC(C)=O)C([C@H](O)[C@H](O)CO)O2)C1O (stereo partly drawn),inhibition,[1],inactive
same,Km,[2],> 5 mM
same,Km,[3],> 5 mM
